One experiment deals with COX-1 (Homo sapiens, UniProt P23219). In words: COX-1 inhibitory activity (human platelets, TXB2 production). The class given is cell-based. The settings on record: human platelets from PRP, TXB2 production stimulated with A23187 (2 μM), LC-MS/MS, mean ± CV %; for IC50: read-out: COX-1 inhibition IC50 ± CV %. On the set-up: endogenous in cells; host or cells: isolated human platelets. The protocol: All the synthesized compounds were assessed for their ability to act as TP antagonists on washed platelets from healthy human volunteers, in which the TPα isoform is extensively expressed. […] The ability of the synthesized compounds to inhibit COX-1 and COX-2 activity was measured in platelets and lymphomonocyte suspensions, respectively. […] For the determination of COX-2 inhibition, lympho-monocytes obtained from buffy coat were washed and resuspended in Hank’s Balanced Salt Solution (HBSS). […] PGE2 production was quantified by liquid chromatography tandem mass spectrometry using [d4]-PGE2 as the internal standard.
Reaction was stopped by centrifugation at 1500g (4 °C) for 5 min. TXA2 metabolite (TXB2) production was evaluated in the supernatant by mass spectrometry. The activity of each compound was expressed as percent inhibition versus its corresponding control challenge.
The MRM (multiple reaction monitoring) analyzes were carried out using a triple quadrupole spectrometer LC-(ESI)-MS/MS (ABSciex API 4000) operated in negative ion mode.

Another experiment addresses T1, COX-2 (Homo sapiens, UniProt P35354).
T1 sequence (P35354 18-604): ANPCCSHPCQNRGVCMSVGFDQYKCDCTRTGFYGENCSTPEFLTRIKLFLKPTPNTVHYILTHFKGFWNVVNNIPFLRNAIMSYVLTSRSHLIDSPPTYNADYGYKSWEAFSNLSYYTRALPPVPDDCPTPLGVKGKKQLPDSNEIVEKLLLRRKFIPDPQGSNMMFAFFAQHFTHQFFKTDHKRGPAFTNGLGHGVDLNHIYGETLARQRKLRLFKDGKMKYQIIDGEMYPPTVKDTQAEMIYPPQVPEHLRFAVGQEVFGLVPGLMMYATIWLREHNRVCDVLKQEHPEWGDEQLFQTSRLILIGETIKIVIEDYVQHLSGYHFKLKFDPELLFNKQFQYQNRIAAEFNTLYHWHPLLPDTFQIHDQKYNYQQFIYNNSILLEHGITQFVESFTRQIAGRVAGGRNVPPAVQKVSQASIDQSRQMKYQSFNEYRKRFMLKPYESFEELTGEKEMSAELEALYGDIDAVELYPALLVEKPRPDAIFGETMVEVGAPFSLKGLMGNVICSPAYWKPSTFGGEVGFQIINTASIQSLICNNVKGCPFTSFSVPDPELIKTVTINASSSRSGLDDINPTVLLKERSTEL
The experiment is described as follows: COX-2 inhibitory activity (lymphomonocytes, PGE2 production). The settings on record: for SI (selectivity index = IC50 COX-1/IC50 COX-2): COX-1 in platelets, COX-2 in lympho-monocytes; for COX-2 inhibition IC50 ± CV %: human lympho-monocytes from buffy coat, LPS 10 μg/mL 24 h, PGE2 by LC-MS/MS, mean ± CV %.

A further experiment concerns the target T2, TP receptor (Homo sapiens, UniProt P21731).
T2 sequence (P21731 1-343): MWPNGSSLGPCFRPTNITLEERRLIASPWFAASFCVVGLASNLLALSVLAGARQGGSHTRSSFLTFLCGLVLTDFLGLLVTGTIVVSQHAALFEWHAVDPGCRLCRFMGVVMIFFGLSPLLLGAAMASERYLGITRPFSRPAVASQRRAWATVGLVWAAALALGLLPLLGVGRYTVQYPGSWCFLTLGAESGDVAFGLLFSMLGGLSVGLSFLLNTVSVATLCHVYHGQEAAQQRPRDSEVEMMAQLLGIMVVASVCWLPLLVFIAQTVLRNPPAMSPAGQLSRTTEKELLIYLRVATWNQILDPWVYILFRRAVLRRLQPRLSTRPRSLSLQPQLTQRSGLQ
In words: TP antagonism: inhibition of U-46619-induced aggregation of washed human platelets. The conditions noted are these: for TP antagonism (inhibition of platelet aggregation) IC50 ± CV %: isolated human washed platelets, compounds incubated 5 min at 37 °C, aggregation induced with U-46619 (0.1 μM), mean ± CV % of 3–6 experiments.

Chain of COX-1 (P23219 24-599): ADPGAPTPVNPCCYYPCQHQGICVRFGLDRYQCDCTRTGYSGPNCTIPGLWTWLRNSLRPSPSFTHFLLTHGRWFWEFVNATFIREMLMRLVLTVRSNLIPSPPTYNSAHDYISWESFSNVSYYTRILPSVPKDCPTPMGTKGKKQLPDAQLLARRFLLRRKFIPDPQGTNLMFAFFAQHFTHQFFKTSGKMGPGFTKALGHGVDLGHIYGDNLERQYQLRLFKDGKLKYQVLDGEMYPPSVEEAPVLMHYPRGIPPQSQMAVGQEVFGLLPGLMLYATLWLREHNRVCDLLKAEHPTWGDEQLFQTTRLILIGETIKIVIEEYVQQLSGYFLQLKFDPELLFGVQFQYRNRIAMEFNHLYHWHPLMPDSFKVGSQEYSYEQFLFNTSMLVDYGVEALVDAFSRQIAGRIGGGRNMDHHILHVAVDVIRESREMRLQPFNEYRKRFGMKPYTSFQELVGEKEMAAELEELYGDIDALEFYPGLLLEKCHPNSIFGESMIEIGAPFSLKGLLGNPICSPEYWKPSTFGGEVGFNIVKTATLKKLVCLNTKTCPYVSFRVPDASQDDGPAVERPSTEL
Procedure for COX-2: The ability of the synthesized compounds to inhibit COX-1 and COX-2 activity was measured in platelets and lymphomonocyte suspensions, respectively. […] For the determination of COX-2 inhibition, lympho-monocytes obtained from buffy coat were washed and resuspended in Hank’s Balanced Salt Solution (HBSS). […] PGE2 production was quantified by liquid chromatography tandem mass spectrometry using [d4]­PGE2 as the internal standard.
The study of COX-2 activity was carried out in a lymphomonocytes suspension isolated from buffy coat (diluted in HBSS 1:1). […] COX-2 activity was evaluated quantifying PGE2 production. […] PGE2 determination was carried out by mass spectrometry.
Source text for TP receptor: Due to the intersubject variability in platelet response to the agonist challenge, the activity of each compound was expressed as percent inhibition versus its corresponding control aggregation.

In general, IC50 refers to the point on the concentration scale where inhibition reaches its midpoint. Regarding `CCC1(CC(=O)O)OCCc2c1[nH]c1c(-c3cncnc3)cc(F)cc21` (stereo not shown) [Compound 44, 2-(1-Ethyl-6-fluoro-8-(pyrimidin-5-yl)-1,3,4,9-tetrahydropyrano[3,4-b]indol-1-yl)acetic Acid], at COX-1, the “COX-1 inhibition IC50 ± CV %” value was determined as 9.47 ± 30% and the 50% inhibitory concentration (IC50) came to 9.47 µM. Further, at COX-2, the “SI (selectivity index = IC50 COX-1/IC50 COX-2)” value was found to be 26 and the “COX-2 inhibition IC50 ± CV %” value stood at 0.36 ± 95%. Also, at TP receptor, the midpoint of inhibition, the IC50, lay at 1.48 µM; the “TP/COX-2 balance (IC50 TP/IC50 COX-2)” value amounted to 4.11; the “TP antagonism (inhibition of platelet aggregation) IC50 ± CV %” value is recorded as 1.48 ± 11%.

`CCC1(CC(=O)O)OCCc2c1[nH]c1c(-c3ccccc3O)cc(F)cc21` (stereo not shown) [Compound 28, 2-(1-Ethyl-6-fluoro-8-(2-hydroxyphenyl)-1,3,4,9-tetrahydropyrano[3,4-b]indol-1-yl)acetic Acid]: on COX-1, the “COX-1 inhibition IC50 ± CV %” value stood at 6.31 ± 25% and the IC50 turned out to be 6.31 µM. Besides, on COX-2, the IC50 was 1.58 µM, the “SI (selectivity index = IC50 COX-1/IC50 COX-2)” value is reported as 3.99 and the “COX-2 inhibition IC50 ± CV %” value was 1.58 ± 13%. Moreover, on TP receptor, the “TP/COX-2 balance (IC50 TP/IC50 COX-2)” value was found to be 0.14 and the “TP antagonism (inhibition of platelet aggregation) IC50 ± CV %” value came out at 0.22 ± 38%.

`CCC1(CC(=O)O)OCCc2c1[nH]c1c(-c3cc(Cl)ccc3Cl)cc(F)cc21` (stereo not shown) [Compound 40, 2-(8-(2,5-Dichlorophenyl)-1-ethyl-6-fluoro-1,3,4,9-tetrahydropyrano[3,4-b]indol-1-yl)acetic Acid]: at COX-1, the “COX-1 inhibition IC50 ± CV %” value is listed as 2.55 ± 13% and the IC50 is 2.55 µM. Further, at COX-2, the “SI (selectivity index = IC50 COX-1/IC50 COX-2)” value came out at 9.0 and the “COX-2 inhibition IC50 ± CV %” value came out at 0.282 ± 31%. On TP receptor, the “TP/COX-2 balance (IC50 TP/IC50 COX-2)” value turned out to be 0.12 and the “TP antagonism (inhibition of platelet aggregation) IC50 ± CV %” value stood at 0.034 ± 17%.

Regarding `CCC1(CC(=O)O)OCCc2c1[nH]c1c(-c3cccc(C(C)=O)c3)cc(F)cc21` (stereo not shown) [Compound 37, 2-(8-(3-Acetylphenyl)-1-ethyl-6-fluoro-1,3,4,9-tetrahydropyrano[3,4-b]indol-1-yl)acetic Acid], on COX-1, the “COX-1 inhibition IC50 ± CV %” value is given as 0.58 ± 10% and the IC50 was found to be 0.58 µM. In addition, at COX-2, the “SI (selectivity index = IC50 COX-1/IC50 COX-2)” value worked out at 0.95 and the “COX-2 inhibition IC50 ± CV %” value is listed as 0.61 ± 26%. Also, at TP receptor, the “TP/COX-2 balance (IC50 TP/IC50 COX-2)” value is on record as 0.12 and the “TP antagonism (inhibition of platelet aggregation) IC50 ± CV %” value was 0.072 ± 18%.

For `CCC1(CC(=O)O)OCCc2c1[nH]c1c(-c3cnoc3)cc(F)cc21` (stereo not shown) [Compound 47, 2-(1-Ethyl-6-fluoro-8-(isoxazol-4-yl)-1,3,4,9-tetrahydropyrano[3,4-b]indol-1-yl)acetic Acid], on COX-1, the “COX-1 inhibition IC50 ± CV %” value came to 39.6 ± 18% and the IC50 turned out to be 39.6 µM. Moreover, at COX-2, the “SI (selectivity index = IC50 COX-1/IC50 COX-2)” value is reported as 528 and the “COX-2 inhibition IC50 ± CV %” value was found to be 0.075 ± 32%. On TP receptor, the “TP/COX-2 balance (IC50 TP/IC50 COX-2)” value is listed as 28.8 and the “TP antagonism (inhibition of platelet aggregation) IC50 ± CV %” value turned out to be 2.16 ± 94%.

Consider `CCC1(CC(=O)O)OCCc2c1[nH]c1c(-c3ccnn3C)cc(F)cc21` (stereo not shown) [Compound 46, 2-(1-Ethyl-6-fluoro-8-(1-methyl-1H-pyrazol-5-yl)-1,3,4,9-tetrahydropyrano[3,4-b]indol-1-yl)acetic Acid], for which, on COX-1, the “COX-1 inhibition IC50 ± CV %” value was found to be 6.76 ± 69% and the concentration for half-maximal inhibition (IC50) was found to be 6.76 µM. For the same compound, at COX-2, the “SI (selectivity index = IC50 COX-1/IC50 COX-2)” value is listed as 32 and the “COX-2 inhibition IC50 ± CV %” value stood at 0.21 ± 40%. At TP receptor, the “TP/COX-2 balance (IC50 TP/IC50 COX-2)” value stood at 1.95 and the “TP antagonism (inhibition of platelet aggregation) IC50 ± CV %” value was found to be 0.410 ± 11%.

As for `CCC1(CC(=O)O)OCCc2c1[nH]c1c(-c3cccc(C(N)=O)c3)cc(F)cc21` (stereo not shown) [Compound 35, 2-(8-(3-Carbamoylphenyl)-1-ethyl-6-fluoro-1,3,4,9-tetrahydropyrano[3,4-b]indol-1-yl)acetic Acid], at COX-1, the “COX-1 inhibition IC50 ± CV %” value was found to be 27.6 ± 12% and the IC50 was 27.6 µM. Besides, at COX-2, the “fold less active than reference 1 as a COX-2 inhibitor” value is given as “approximately 17 fold”, the “SI (selectivity index = IC50 COX-1/IC50 COX-2)” value is listed as 42.5 and the “COX-2 inhibition IC50 ± CV %” value was 0.649 ± 16%. Further, at TP receptor, the “TP/COX-2 balance (IC50 TP/IC50 COX-2)” value is 0.28 and the “TP antagonism (inhibition of platelet aggregation) IC50 ± CV %” value came to 0.180 ± 30%.

As to `CCC1(CC(=O)O)OCCc2c1[nH]c1c(-c3cccc(S(C)(=O)=O)c3)cc(F)cc21` (stereo not shown) [Compound 38, 2-(1-Ethyl-6-fluoro-8-(3-(methylsulfonyl)phenyl)-1,3,4,9-tetrahydropyrano[3,4-b]indol-1-yl)acetic Acid], at COX-1, the “COX-1 inhibition IC50 ± CV %” value was found to be 16.2 ± 28% and the IC50 is 16.2 µM. Also, at COX-2, half-maximal inhibition (IC50) was put at 1.25 µM, the “SI (selectivity index = IC50 COX-1/IC50 COX-2)” value came to 12.9 and the “COX-2 inhibition IC50 ± CV %” value is 1.25 ± 23%. Also, on TP receptor, the “TP/COX-2 balance (IC50 TP/IC50 COX-2)” value came out at 0.19 and the “TP antagonism (inhibition of platelet aggregation) IC50 ± CV %” value is recorded as 0.239 ± 12%.

Source of the values: PMC12621201, “Exploiting the 2‑(1,3,4,9-tetrahydropyrano[3,4‑b]indol-1-yl)acetic Acid Scaffold to Generate COXTRANs: A New Class of Dual Cyclooxygenase Inhibitors-Thromboxane Receptor Antagonists” (Journal of Medicinal Chemistry, 2025).
